The values below are quoted from earlier work in patent US20110313027A1, “METHODS AND SUBSTANCES FOR STIMULATING MUSCLE REGENERATION” (priority 2008, published 2011).

The test system of this data set is SERCAs. Particulars: cultured muscle cells.

The structures appear in SMILES notation.

Turning to `C/C=C(/C)C(=O)O[C@H]1C(C)=C2[C@H]([C@@H]1OC(=O)CCCCCCC)[C@@](C)(OC(C)=O)C[C@H](OC(=O)CCC)[C@@]1(O)[C@H]2OC(=O)[C@@]1(C)O` [thapsigargin], the “activity of an NFAT reporter construct” value was “increased the activity”; the “myotube growth and differentiation” value was “decreases myotube growth and differentiation”.
